Data from patent US10626126B2, “Compounds” (Pulmocide Limited, priority 2016, dated 2020).

What was measured:
Type in all cases: cell-based
RSV A2 strain = experiment: RSV A2 induced CPE in HEp2 cells; settings: human respiratory syncytial virus; for IC50: HEp-2, 120 h, 5 days; for inhibition at 0.01 µg/mL: HEp-2, at 0.01 μg/mL
Experimental: (§1) HEp2 cells were seeded (10^3/well/50 μL) in 384-well plates (Catalogue number 353962, BD Falcon, Oxford, UK) in 5% FBS-DMEM (containing 2 mM L-glutamine and 1 mM sodium pyruvate) one day before infection. […] Simultaneously, test compounds (0.5 μL DMSO solution) were added to 100 μL of HEp2 cell culture with virus solution to provide a final DMSO solution of 0.5%. […] Sigma-Aldrich, Dorset, UK) was added to each well and the plate incubated for a further 6 hr (37° C./5% CO2). The fluorescence of each well [545 nm (excitation)/590 nm (emission)] was determined using a multi-scanner (Clariostar: BMG, Buckinghamshire, UK). The percentage inhibition for each well was calculated and the IC50, IC75 and IC90 values were calculated from the concentration-response curve generated for each test compound.

RSV B Washington strain = experiment: RSV B induced CPE in HEp2 cells; settings: human respiratory syncytial virus; for IC50: HEp-2, 144 h, 6 days; for inhibition at 1 µg/mL: HEp-2, at 1 μg/mL; for inhibition at 0.1 µg/mL: HEp-2, at 0.1 μg/mL
Experimental: as §1

[1] = Cell viability: resazurin assay; settings: human, HEp2 cells
Experimental: HEp2 cells were seeded in 384-well plates (10^3/well/50 μL; BD Falcon Ref 353962) in FBS DMEM (5%, containing 2 mM L-glutamine and 1 mM sodium pyruvate) one day before experimentation. Serum-free DMEM (50 μL) was added to test wells, while for control wells the media was removed and sterile water (100 μL) added. Test compounds (0.5 μL DMSO solution) were added to give a final DMSO concentration of 0.5%. HEp2 cells were incubated with each test compound for 5 days (37° C./5% CO2 in 2.5% FBS) and then resazurin stock solution (5 μL; 0.03%) was added to each well and the plate incubated for a further 6 hr (37° C./5% CO2). The fluorescence of each well at 545 nm (excitation) and 590 nm (emission) was determined using a multi-scanner (Clariostar: BMG Labtech). The percentage loss of cell viability was calculated for each well relative to vehicle (0.5% DMSO) treatment. Note that any apparent increase in cell viability associated with test compound treatment relative to vehicle is consequently tabulated as a negative percentage. Where appropriate, a CC50 value was calculated from the concentration-response curve generated from the concentration-response curve for each test compound.

| Structure (SMILES) | IC50 (RSV A2 strain) [nM] | inhibition at 0.01 µg/mL (RSV A2 strain) [%] | IC50 (RSV B Washington strain) [nM] | inhibition at 1 µg/mL (RSV B Washington strain) [%] | CC50 at 5 days [1] [nM] | inhibition at 0.1 µg/mL (RSV B Washington strain) [%] |
| --- | --- | --- | --- | --- | --- | --- |
| COc1ccc(C(=O)Nc2ccc(C(=O)N3CCc4cc(C(=O)Nc5c(F)cccc5F)sc4-c4sccc43)cc2)c(N2CC3(CCOCC3)C2)n1 [Example 22, N-(2,6-difluorophenyl)-4-(4-(6-methoxy-2-(7-oxa-2-azaspiro[3.5]nonan-2-yl)nicotinamido)benzoyl)-5,6-dihydro-4H-dithieno[3,2-b:2′,3′-d]azepine-8-carboxamide] | 1.7 | 94 | 159 | 94 | > 13500 |  |
| Cc1cnc(N2CCC3(CCOCC3)CC2)c(C(=O)Nc2ccc(C(=O)N3CCc4cc(C(=O)Nc5c(F)cccc5F)sc4-c4sccc43)cc2)c1 [Example 34, N-(2,6-difluorophenyl)-4-(4-(5-methyl-2-(3-oxa-9-azaspiro[5.5]undecan-9-yl)nicotinamido)benzoyl)-5,6-dihydro-4H-dithieno[3,2-b:2′,3′-d]azepine-8-carboxamide] | 4.4 | 100 | > 1330 | 9 | > 13300 |  |
| O=C(Nc1c(F)cccc1F)c1cc2c(s1)-c1sccc1N(C(=O)c1ccc(NC(=O)c3cccnc3N3CC4(COC4)C3)cc1)CC2 [Example 31, 4-(4-(2-(2-oxa-6-azaspiro[3.3]heptan-6-yl)nicotin-amido)benzoyl)-N-(2,6-difluorophenyl)-5,6-dihydro-4H-dithieno[3,2-b:2′,3′-d]azepine-8-carboxamide] | 10.8 | 62 | 1050 | 57 | > 14600 |  |
| Cc1cc(C(=O)Nc2ccc(C(=O)N3CCc4cc(C(=O)Nc5c(F)cccc5F)sc4-c4sccc43)cc2)c(N2CC3(CCOCC3)C2)nc1C [Example 4, N-(2,6-Difluorophenyl)-4-(4-(5,6-dimethyl-2-(7-oxa-2-azaspiro[3.5]nonan-2-yl)nicotinamido)benzoyl)-5,6-dihydro-4H-dithieno[3,2-b:2′,3′-d]azepine-8-carboxamide] | 0.28 | 96 | 18 |  | > 13500 | 98 |
| O=C(Nc1c(F)cccc1F)c1cc2c(s1)-c1sccc1N(C(=O)c1ccc(NC(=O)c3cc4c(nc3N3CC5(CCOCC5)C3)CCOC4)cc1)CC2 [Example 25, N-(4-(8-((2,6-difluorophenyl)carbamoyl)-5,6-dihydro-4H-dithieno[3,2-b:2′,3′-d]azepine-4-carbonyl)phenyl)-2-(7-oxa-2-azaspiro[3.5]nonan-2-yl)-7,8-dihydro-5H-pyrano[4,3-b]pyridine-3-carboxamide] | 0.18 | 100 | 10 |  | > 13000 | 89 |
| Cc1cnc(N2CC3(CCOCC3)C2)c(C(=O)Nc2ccc(C(=O)N3CCc4cc(C(=O)Nc5c(F)cccc5Cl)sc4-c4sccc43)c(F)c2)c1 [Example 19, N-(2-chloro-6-fluorophenyl)-4-(2-fluoro-4-(5-methyl-2-(7-oxa-2-azaspiro[3.5]nonan-2-yl)nicotinamido)benzoyl)-5,6-dihydro-4H-dithieno[3,2-b:2′,3′-d]azepine-8-carboxamide] | 0.18 | 93 | 29 | 86 | > 13200 |  |
| O=C(Nc1c(F)cccc1F)c1cc2c(s1)-c1sccc1N(C(=O)c1ccc(NC(=O)c3cccnc3N3CC4(CCOCC4)C3)cc1)CC2 [Example 6, 4-(4-(2-(7-oxa-2-azaspiro[3.5]nonan-2-yl)nicotin-amido)benzoyl)-N-(2,6-difluorophenyl)-5,6-dihydro-4H-dithieno[3,2-b:2′,3′-d]azepine-8-carboxamide] | 0.44 | 93 | 63 | 95 | > 14000 |  |
| O=C(Nc1c(F)cccc1F)c1cc2c(s1)-c1sccc1N(C(=O)c1ccc(NC(=O)c3cccnc3N3CCC4(CCOCC4)CC3)cc1)CC2 [Example 33, 4-(4-(2-(3-oxa-9-azaspiro[5.5]undecan-9-yl)nicotin amido)benzoyl)-N-(2,6-difluorophenyl)-5,6-dihydro-4H-dithieno[3,2-b:2′,3′-d]azepine-8-carboxamide] | 1.4 | 100 | > 1350 | 23 | > 13500 |  |
| Cc1cnc(N2CC3(CCOCC3)C2)c(C(=O)Nc2ccc(C(=O)N3CCc4cc(C(=O)Nc5ccccc5)sc4-c4sccc43)cc2)c1 [Example 8, 4-(4-(5-methyl-2-(7-oxa-2-azaspiro[3.5]nonan-2-yl)nicotinamido)benzoyl)-N-phenyl-5,6-dihydro-4H-dithieno [3,2-b:2′,3′-d]azepine-8-carboxamide] | 0.68 | 100 | 137 | 97 | > 14500 |  |
| COc1cnc(N2CC3(CCOCC3)C2)c(C(=O)Nc2ccc(C(=O)N3CCc4cc(C(=O)Nc5c(F)cccc5F)sc4-c4sccc43)cc2)c1 [Example 20, N-(2,6-difluorophenyl)-4-(4-(5-methoxy-2-(7-oxa-2-azaspiro[3.5]nonan-2-yl)nicotinamido)benzoyl)-5,6-dihydro-4H-dithieno[3,2-b:2′,3′-d]azepine-8-carboxamide] | 0.17 | 100 | 18 |  | > 13500 | 100 |
| Cc1cnc(N2CC3(CCOCC3)C2)c(C(=O)Nc2ccc(C(=O)N3CCc4cc(C(=O)Nc5ccc(F)cc5F)sc4-c4sccc43)cc2)c1 [Example 10, N-(2,4-difluorophenyl)-4-(4-(5-methyl-2-(7-oxa-2-azaspiro[3.5]nonan-2-yl)nicotinamido)benzoyl)-5,6-dihydro-4H-dithieno[3,2-b:2′,3′-d]azepine-8-carboxamide] | 0.75 | 97 | 123 | 100 | > 13800 |  |
| Cc1cnc(N2CC3(COC3)C2)c(C(=O)Nc2ccc(C(=O)N3CCc4cc(C(=O)Nc5c(F)cccc5F)sc4-c4sccc43)cc2)c1 [Example 32, N-(2,6-difluorophenyl)-4-(4-(5-methyl-2-(2-oxa-6-azaspiro[3.3]heptan-6-yl)nicotinamido)benzoyl)-5,6-dihydro-4H-dithieno[3,2-b:2′,3′-d]azepine-8-carboxamide] | 0.59 | 100 | 602 | 90 | > 14300 |  |
| Cc1cnc(N2CC3(CCOCC3)C2)c(C(=O)Nc2ccc(C(=O)N3CCc4cc(C(=O)Nc5c(F)cc(F)cc5F)sc4-c4sccc43)cc2)c1 [Example 17, 4-(4-(5-methyl-2-(7-oxa-2-azaspiro[3.5]nonan-2-yl)nicotinamido)benzoyl)-N-(2,4,6-trifluorophenyl)-5,6-dihydro-4H-dithieno[3,2-b:2′,3′-d]azepine-8-carboxamide] | 0.17 | 92 | 19 |  | > 13400 | 100 |
